# In PMC7318222, “A Family of Water‐Immiscible, Dipolar Aprotic, Diamide Solvents from Succinic Acid” (Chemsuschem, 2020):
# Columns and labels:
# [1] = Miscibility with water; type: physicochemical; settings: this work
# [2] = Miscibility with hexane; type: physicochemical; settings: this work
compound,measurement,setting,value
"CN(C)C=O [DMF, N,N‐dimethylformamide]",Water misc.,[1],yes^[a]
same,Hexane misc.,[2],no^[a]
